Experiments:
[1] = xn = mol fraction of the nth substance listed; conditions: 101 kPa, Liquid; for speed of sound: Pulse-echo method
[2] = refractive index (Na D-line) (dimensionless); xn = mol fraction of the nth substance listed; conditions: 101 kPa, Liquid, Standard Abbe refractometry

CC1CCCCC1 [methylcyclohexane] + CCc1ccccc1
Conditions	mass density, [1] [kg/m3]	refractive index, [2]	speed of sound, [1] [m/s]
283.15 K, x1 = 0.0494	870.3	1.49728	1376
283.15 K, x1 = 0.0975	865.2	1.49353	1369
283.15 K, x1 = 0.1983	854.6	1.4855	1356
283.15 K, x1 = 0.2981	844.4	1.47786	1345
283.15 K, x1 = 0.4008	834.1	1.47018	1333
283.15 K, x1 = 0.5005	824.2	1.46281	1323
283.15 K, x1 = 0.6001	814.6	1.45566	1313
283.15 K, x1 = 0.7006	805.2	1.44856	1304
283.15 K, x1 = 0.7952	796.4	1.44194	1297
283.15 K, x1 = 0.8949	787.3	1.43542	1289
283.15 K, x1 = 0.9495	782.4	1.43163	1285
283.15 K, x1 = 1	777.9	1.42833	1281
298.15 K, x1 = 0.0494	857.2	1.48923	1312
298.15 K, x1 = 0.0975	852.1	1.48542	1305
298.15 K, x1 = 0.1983	841.5	1.47754	1292
298.15 K, x1 = 0.2981	831.2	1.46988	1280
298.15 K, x1 = 0.4008	820.9	1.46219	1268
298.15 K, x1 = 0.5005	811	1.45484	1258
298.15 K, x1 = 0.6001	801.4	1.44771	1247
298.15 K, x1 = 0.7006	791.9	1.44068	1236
298.15 K, x1 = 0.7952	783.1	1.43414	1230
298.15 K, x1 = 0.8949	774.2	1.42751	1222
298.15 K, x1 = 0.9495	769.3	1.4239	1218
298.15 K, x1 = 1	765.1	1.42062	1215

C1CCCCCCC1 [cyclooctane] + CCc1ccccc1
298.15 K
Conditions	mass density, [1] [kg/m3]	refractive index, [2]	speed of sound, [1] [m/s]
x1 = 0.0465	860.4	1.49082	1321
x1 = 0.0962	858.3	1.48858	1322
x1 = 0.1961	854.1	1.48405	1327
x1 = 0.2944	850.3	1.47983	1332
x1 = 0.3975	846.6	1.47562	1339
x1 = 0.4959	843.4	1.47185	1346
x1 = 0.5935	840.4	1.46828	1353
x1 = 0.6929	837.6	1.46489	1361
x1 = 0.7954	835.2	1.4616	1370
x1 = 0.8899	833.2	1.45885	1379
x1 = 0.9497	832.1	1.45726	1385
x1 = 1	831.5	1.45598	1391
